Measurements: US6403647B1, “Pulsed administration of compositions for the treatment of blood disorders” (priority 1996, dated 2002)

Assays:
[1] = DNA fragmentation assays (cell viability); assay type: cell-based
Description: Normal cell viability, the viability of an untransformed or uninfected cell, can be determined from analyzing the effects of the composition on one or more biological processes of the cell. Detrimental interference with one or more of these cellular processes becomes significant when the process becomes abnormal. Examples of quantitatable and qualifiable biological processes include the processes of cell division, protein synthesis, nucleic acid (DNA or RNA) synthesis, nucleic acid (principally DNA) fragmentation and apoptosis. Others processes include specific enzyme activities, the activities of the cellular transportation systems such as the transportation of amino acids by system A (neutral), system B (acidic) or system C (basic), and the expression of a cell surface protein. […] Abnormal cell division, for example, can be mitosis which occurs too rapidly, as in a malignancy, or unstably, resulting in programmed cell death or apoptosis, detected by increased DNA degradation. The determination of abnormal cell viability can be made on comparison with untreated control cells. Compositions preferably increase normal cell viability. Increased cell viability can be determined by those of ordinary skill in the art using, for example, DNA fragmentation analysis. […] Determinations of increased or decreased viability can also be concluded from an analysis of the results of multiple different assays. Where multiple tests provide conflicting results, accurate conclusions can still be drawn by those of ordinary skill based upon the cell type, the correctness or correlation of the tests with actual conditions and the type of composition.
Patients with blood disorders are typically quite infirm with, for example, iron damaged organs and systems. Most treatments further tax the patient's already frail health in an effort to combat the disorder.

[2] = test system: fetal globin; assay: Proportion of fetal globin-expressing cells in culture, fluorescent antibodies, sickle cell patient; assay type: cell-based, human; settings: 14 days, controls 40.7%
Description: In a fourth experiment, erythroid cells were obtained from a sickle cell patient. These cells were established in culture both with and without test a variety of test compounds. Cultures were incubated for 14 days in methylcellulose media with maximal concentrations of all hematopoietic growth factors (GM-CSF, SCF, EPO). Colonies were analyzed using fluorescent monoclonal antibodies against fetal globin to determine the proportion of erythroid cells that expressed fetal globin.

[3] = test system: Bfu-e; assay: Erythroid colony (Bfu-e) proliferation with maximal growth factors, normal subject; assay type: cell-based, human; settings: 0.2-0.5 mM where given
Description: Erythroid cells were obtained, as described in Example 1, from a normal subject and cultured on semi-solid medium in the presence of a maximal amount of erythroid growth factors including IL-6, GM-CSF, SCF and EPO. Erythroid proliferation in the presence of these factors is expected to be maximal and, therefore, any increases observed would be significant.

[4] = test system: fetal globin; assay: Fetal globin production in erythroid progenitor colonies (Bfu-e), sickle cell anemia patient; assay type: cell-based, human; settings: controls 48% of non-α globin
[5] = test system: system A transport of amino acids; assay: Uptake of 3H-methyl-aminoisobutyric acid (MeAIB) into erythroblasts; assay type: cell-based; settings: for amino acid (MeAIB) uptake / transport: 2.0 mM, relative to untreated fetal liver erythroid cells; for inhibition of MeAIB uptake: after 60 and 120 minutes
Description: Erythroblasts were tested for alterations in uptake of radio-labelled amino acid (^3H-methyl-aminoisobutyric acid; MeAIB) in the presence of AB (arginine butyrate), AMHCA (α-methylhydrocinnamic acid), PAA (phenoxyacetic acid), and IBT (isobutyramide), each at 2.0 mM.

[6] = test system: K562 human erythroleukemia cells; settings: cited from earlier work
[7] = test system: human fetal liver cells; assay: Erythroid progenitor colony proliferation, fetal liver cells; assay type: cell-based; settings: 0.2 mM, maximal growth factors, p<0.025
Description: In a third experiment, human fetal liver cells were also tested. As fetal cells are known not to respond to the presence of the growth factors, any increases observed are highly significant. Erythroid progenitor cultures were established from fetal liver and plated with maximal amounts of growth factors. To these plates were added; lane 1, 2-(4′-methoxyphenoxy) propionic acid; lane 2, phenoxyacetic acid; and lane 3, α-methylhydrocinnamic acid; all at a concentration of 0.2 mM.

[8] = test system: γ-globin expression; assay: γ-globin mRNA by RNase protection in erythroid cell cultures of normal individuals; assay type: cell-based, human; settings: for x increase in % s: over ChFCS
Description: Fetal globin production was determined in erythroid progenitor cells cultured in the presence or absence of test compositions. Erythroid cells were purified from blood obtained from a normal individual . […] Erythroid cell cultures were established with the following conditions: IMDM methylcellulose media, erythropoietin (3 U/ml), the human subjects' mononuclear cells, 30% charcoal-absorbed fetal calf serum, and the test compounds at varying micromolar concentrations.
Compounds were tested for their ability to induce expression of fetal globin expression in erythroid cell cultures established from the peripheral blood of normal individuals. Colonies were harvested and assayed for globin mRNA following 14 days of culture. Each compound was tested in duplicate cultures from 2-4 individual human subjects. Globin expression was quantitated by RNase protection assay for % gamma globin as a fraction of total non-alpha globin (% gamma/gamma+beta globin mRNA).

CCCC(=O)OCC [butyric acid ethyl ester]
DNA fragmentation in fragmentation assays [1]: reduce DNA fragmentation

CC(Oc1ccc(Cl)cc1)C(=O)O (stereo not drawn) [4-chlorophenoxy-2-propionic acid]
Increase in γ-Globin Expressing Cells ([2]; 0.5 mM): 59.7%
Bfu-e growth [3]: further increase Bfu-e growth

CC(=Cc1ccccc1)C(=O)O [α-methylcinnamic acid]
increase in fetal globin over controls [4]: 12%

diethyl butyric acid
amino acid (MeAIB) uptake / transport [5]: did not inhibit amino acid transport

CCOC(=O)/C=C/C(=O)O [fumaric acid monoethyl ester]
Increase in γ-Globin Expressing Cells ([2]; concentration not given): 59.1%
amino acid (MeAIB) uptake / transport [5]: did not inhibit amino acid transport

O=C(O)CSc1ccccc1 [thiophenoxyacetic acid]
increase in fetal globin over controls [4]: 38%

CCCCCCCC(=O)O [caprylate]
ability to increase fetal globin expression [6]: much less of an effect

CCCCCC(=O)[O-].CCCCCC(=O)[O-].[Ca+2] [caproate]
ability to increase fetal globin expression [6]: much less of an effect

COc1ccc(OC(C)C(=O)O)cc1 (stereo not drawn) [2-(4′-methoxyphenoxy) propionic acid]
proliferation of colonies [7]: increased proliferation of colonies
Bfu-e growth [3]: further increase Bfu-e growth
amino acid (MeAIB) uptake / transport [5]: moderate inhibition of transport
inhibition of MeAIB uptake [5]: somewhat less so

CC(C)C(N)=O [isobutyramide]
cell viability in DNA fragmentation assays [1]: decrease cell viability

CCC(C)(C)C(=O)O [2,2-dimethylbutyric acid]
Increase in γ-Globin Expressing Cells ([2]; concentration not given): 70.1%
amino acid (MeAIB) uptake / transport [5]: moderate inhibition of transport
inhibition of MeAIB uptake [5]: somewhat less so
increase in fetal globin over controls [4]: 24%

O=C(CCCCCCC(=O)NO)NO [suberoyl bis hydroxamic acid, Suberoyl bis hydroxamic acid]
x increase in % s ([8]; 0.5 μM, group 1 (99-3a, 99-3b)): 1.6 x
γ/γ + β ([8]; 0.5 μM, group 1, subject 99-3a): 13.54%
γ/γ + β ([8]; 0.5 μM, group 1, subject 99-3b): 11.55%
γ/γ + β mean ([8]; 0.5 μM, group 1, subjects 99-3a, 99-3b): 12.55%
x increase in % s ([8]; 0.5 μM, group 2 (99-4, 99-5)): 0.9 x
γ/γ + β ([8]; 0.5 μM, group 2, subject 99-4): 6.25%
γ/γ + β ([8]; 0.5 μM, group 2, subject 99-5): 6.42%
γ/γ + β mean ([8]; 0.5 μM, group 2, subjects 99-4, 99-5): 6.34%
x increase in % s ([8]; 1 μM, group 1 (99-3a, 99-3b)): 1.3 x
γ/γ + β ([8]; 1 μM, group 1, subject 99-3a): 10.99%
γ/γ + β ([8]; 1 μM, group 1, subject 99-3b): 9.19%
γ/γ + β mean ([8]; 1 μM, group 1, subjects 99-3a, 99-3b): 10.09%
x increase in % s ([8]; 1 μM, group 2 (99-4, 99-5)): 1.2 x
γ/γ + β ([8]; 1 μM, group 2, subject 99-4): 8.46%
γ/γ + β mean ([8]; 1 μM, group 2, subject 99-4 only): 8.46%
x increase in % s ([8]; 1 μM, group 3 (99-6, 99-7, 99-10)): 1.5 x
γ/γ + β ([8]; 1 μM, group 3, subject 99-6): 5.41%
γ/γ + β ([8]; 1 μM, group 3, subject 99-7): 10.76%
γ/γ + β ([8]; 1 μM, group 3, subject 99-10): 6.92%
γ/γ + β mean ([8]; 1 μM, group 3, subjects 99-6, 99-7, 99-10): 7.70%
x increase in % s ([8]; 2 μM, group 1 (99-3a, 99-3b)): 2.9 x
γ/γ + β ([8]; 2 μM, group 1, subject 99-3a): 21.36%
γ/γ + β ([8]; 2 μM, group 1, subject 99-3b): 23.63%
γ/γ + β mean ([8]; 2 μM, group 1, subjects 99-3a, 99-3b): 22.50%
x increase in % s ([8]; 2 μM, group 2 (99-4, 99-5)): 1.5 x
γ/γ + β ([8]; 2 μM, group 2, subject 99-4): 9.92%
γ/γ + β ([8]; 2 μM, group 2, subject 99-5): 10.65%
γ/γ + β mean ([8]; 2 μM, group 2, subjects 99-4, 99-5): 10.29%
x increase in % s ([8]; 2 μM, group 3 (99-6, 99-7, 99-10)): 2.1 x
γ/γ + β ([8]; 2 μM, group 3, subject 99-6): 6.65%
γ/γ + β ([8]; 2 μM, group 3, subject 99-7): 15.75%
γ/γ + β ([8]; 2 μM, group 3, subject 99-10): 10.00%
γ/γ + β mean ([8]; 2 μM, group 3, subjects 99-6, 99-7, 99-10): 10.80%
x increase in % s ([8]; 3 μM, group 1 (99-3a, 99-3b)): 3.2 x
γ/γ + β ([8]; 3 μM, group 1, subject 99-3a): 24.90%
γ/γ + β ([8]; 3 μM, group 1, subject 99-3b): 23.72%
γ/γ + β mean ([8]; 3 μM, group 1, subjects 99-3a, 99-3b): 24.31%
x increase in % s ([8]; 3 μM, group 2 (99-4, 99-5)): 2.6 x
γ/γ + β ([8]; 3 μM, group 2, subject 99-4): 17.99%
γ/γ + β ([8]; 3 μM, group 2, subject 99-5): 17.89%
γ/γ + β mean ([8]; 3 μM, group 2, subjects 99-4, 99-5): 17.94%
x increase in % s ([8]; 4 μM, group 1 (99-3a, 99-3b)): 6.4 x
γ/γ + β ([8]; 4 μM, group 1, subject 99-3a): 48.57%
γ/γ + β ([8]; 4 μM, group 1, subject 99-3b): 50.66%
γ/γ + β mean ([8]; 4 μM, group 1, subjects 99-3a, 99-3b): 49.62%
x increase in % s ([8]; 4 μM, group 2 (99-4, 99-5)): 3.4 x
γ/γ + β ([8]; 4 μM, group 2, subject 99-4): 24.10%
γ/γ + β mean ([8]; 4 μM, group 2, subject 99-4 only): 24.10%
x increase in % s ([8]; 4 μM, group 3 (99-6, 99-7, 99-10)): 3.9 x
γ/γ + β ([8]; 4 μM, group 3, subject 99-6): 13.33%
γ/γ + β ([8]; 4 μM, group 3, subject 99-7): 30.45%
γ/γ + β ([8]; 4 μM, group 3, subject 99-10): 15.73%
γ/γ + β mean ([8]; 4 μM, group 3, subjects 99-6, 99-7, 99-10): 19.84%
x increase in % s ([8]; 4 μM, group 4 (99-10, 00-1, 00-3)): 1.7 x
γ/γ + β ([8]; 4 μM, group 4, subject 00-1): 4.82%
γ/γ + β ([8]; 4 μM, group 4, subject 00-3): 5.01%
γ/γ + β ([8]; 4 μM, group 4, subject 99-10): 11.38%
γ/γ + β mean ([8]; 4 μM, group 4, subjects 99-10, 00-1, 00-3): 7.07%
x increase in % s ([8]; 6 μM, group 3 (99-6, 99-7, 99-10)): 5.5 x
γ/γ + β ([8]; 6 μM, group 3, subject 99-6): 22.97%
γ/γ + β ([8]; 6 μM, group 3, subject 99-7): 31.51%
γ/γ + β ([8]; 6 μM, group 3, subject 99-10): 29.15%
γ/γ + β mean ([8]; 6 μM, group 3, subjects 99-6, 99-7, 99-10): 27.88%
x increase in % s ([8]; 6 μM, group 4 (99-10, 00-1, 00-3)): 2.7 x
γ/γ + β ([8]; 6 μM, group 4, subject 00-1): 9.46%
γ/γ + β ([8]; 6 μM, group 4, subject 00-3): 8.89%
γ/γ + β ([8]; 6 μM, group 4, subject 99-10): 16.34%
γ/γ + β mean ([8]; 6 μM, group 4, subjects 99-10, 00-1, 00-3): 11.56%
x increase in % s ([8]; 8 μM, group 3 (99-6, 99-7, 99-10)): 7.4 x
γ/γ + β ([8]; 8 μM, group 3, subject 99-6): 31.99%
γ/γ + β ([8]; 8 μM, group 3, subject 99-7): 44.02%
γ/γ + β ([8]; 8 μM, group 3, subject 99-10): 35.73%
γ/γ + β mean ([8]; 8 μM, group 3, subjects 99-6, 99-7, 99-10): 37.25%
x increase in % s ([8]; 8 μM, group 4 (99-10, 00-1, 00-3)): 4.4 x
γ/γ + β ([8]; 8 μM, group 4, subject 00-1): 12.88%
γ/γ + β ([8]; 8 μM, group 4, subject 00-3): 21.68%
γ/γ + β ([8]; 8 μM, group 4, subject 99-10): 21.37%
γ/γ + β mean ([8]; 8 μM, group 4, subjects 99-10, 00-1, 00-3): 18.64%
x increase in % s ([8]; 10 μM, group 4 (99-10, 00-1, 00-3)): 7.3 x
γ/γ + β ([8]; 10 μM, group 4, subject 00-1): 27.89%
γ/γ + β ([8]; 10 μM, group 4, subject 00-3): 31.25%
γ/γ + β ([8]; 10 μM, group 4, subject 99-10): 35.06%
γ/γ + β mean ([8]; 10 μM, group 4, subjects 99-10, 00-1, 00-3): 31.40%
x increase in % s ([8]; 12 μM, group 4 (99-10, 00-1, 00-3)): 10.8 x
γ/γ + β ([8]; 12 μM, group 4, subject 00-3): 45.69%
γ/γ + β ([8]; 12 μM, group 4, subject 99-10): 46.94%
γ/γ + β mean ([8]; 12 μM, group 4, subjects 99-10, 00-3): 46.32%

CCCCCCCCCC(=O)O [caprate]
ability to increase fetal globin expression [6]: much less of an effect

COCC(=O)O [methoxyacetic acid]
increase in fetal globin over controls [4]: 3%
